In the pKa sets of Baltruschat and Czodrowski (2020):
Where a SMILES comes first, the peptide text is derived from it.

| SMILES | pKa (acidic group) | pKa (basic group) |
| --- | --- | --- |
| Cc1ccc(C(=O)O)c([N+](=O)[O-])c1 | 2.68 |  |
| CN1CCCCCN1C |  | 6.66 |
| CC(C)C[C@H]([NH3+])C(=O)N[C@@H](Cc1c[nH]c[nH+]1)C(=O)O | 2.76 |  |
| C[Si](C)(CCCCl)CCCC(=O)O | 4.98 |  |
| C[C@H](N)C(=O)N[C@@H](Cc1c[nH]cn1)C(=O)[O-] (H-Ala-His-OH) |  | 8.08 |
| CN(C)c1ccc(N(C)C)cc1 |  | 6.37 |
| COc1cc(C(N)=O)ccc1-c1nc2c(ncn2C)[nH]1 | 11.7 | 3.8 |
| O=C(O)/C=C/c1cccc([N+](=O)[O-])c1 | 4.08 |  |
| O=C(O)[C@@H]1CCCN1C(=O)[C@@H]1CCC[NH2+]1 | 3.16 |  |
| CC(C)N[C@H](c1ccccc1)[C@H](O)c1ccccc1 |  | 11.8 |
| Oc1ccc2c(c1)CCCC2 | 10.3 |  |
| N#Cc1c(-c2nc3ccccc3o2)c(=O)oc2cc(O)ccc12 | 6.07 |  |
| [S-]c1cnc2ccccc2[nH+]1 |  | -1.11 |
| Nc1cc[nH+]c2c(O)cccc12 | 6.91 |  |
| CC1=CC(=O)C=C(C)C1=NO | 8.04 |  |
| CC(O)CNCCN (centres undefined) |  | 9.86 |
| CCOC(=O)c1ccccc1-n1nc(O)cc1C | 12.3 |  |
| COc1ccccc1/C=C/C=N/O | 10.8 |  |
| O=C1CNC(=O)N1 | 9.12 |  |
| Oc1ccc(NCc2ccccc2)cc1 |  | 5.17 |
| O=CO | 3.69 |  |
| CCN(CC)CCCCCCNc1c2ccc(Cl)cc2nc2ccc(OC)cc12 |  | 10.3 |
| O=C(O)c1ccc(Br)s1 | 3.3 |  |

| SMILES | pKa (acidic group) | pKa (basic group) |
| --- | --- | --- |
| O=C(O)/C(I)=C/c1ccccc1 | 3.3 |  |
| Cn1c(-c2ccccn2)[nH+]c2ccccc21 |  | -1.27 |
| Cn1ccc(N)n1 |  | 3.81 |
| Cn1cnc2c1C(=O)c1ncnc([O-])c1C2=O |  | 6.09 |
| Nc1ccc2c(c1)CCCC2 |  | 5.2 |
| Cc1cccc([P+](c2cccc(C)c2)(c2cccc(C)c2)C2c3ccccc3-c3ccccc32)c1 | 9.55 |  |
| CC(=O)CC(C)=O | 8.85 |  |
| Cc1cccc(N)c1-c1c(C)cccc1[NH3+] |  | 2.1 |
| CC(C)(N)CN |  | 10 |
| Cc1c[nH+]c(C)cn1 |  | -4.42 |
| CCCN(C)N(C)CCC |  | 7.05 |
| CC(C)CCC1=C(O)C(=O)c2ccccc2C1=O | 5.13 |  |
| O=C(O)c1ccc2[nH]ccc2c1 | 4.1 |  |
| O=[N+]([O-])c1ccc2[nH]c(C(F)(F)F)nc2c1 |  | 0.18 |
| CC(C)[C@H]1CC[C@H](C)C[C@@H]1N |  | 10.6 |
| Nc1ncnc2c1ncn2C1CCCCC1 |  | 4.19 |
| C[NH+](C)CCCCCCCCCNC(=O)/C=N/O | 8.99 |  |
| CCN(CC)CC(=O)Nc1cc(C)cc(C)c1 |  | 8.01 |
| Cc1[nH]cnc1CSCCNC(=N)NCCCc1c[nH]cn1 |  | 11.6 |
| OCCC[n+]1cc(Br)c2ccccc2c1 | 12 |  |
| C=C(C)C(=O)NC(C)(C)CCN(C)C |  | 9.37 |
| Nc1ccc(S(=O)(=O)NCc2ccco2)cc1 | 10.9 | 2.25 |
| Cc1cc(Nc2ccc(O)cc2)cc(C)c1O | 10 |  |

| SMILES | pKa (acidic group) | pKa (basic group) |
| --- | --- | --- |
| CC1CCCCC1=N (centres undefined) |  | 9.38 |
| [NH3+]c1ccc(-c2cnc(-c3ccc(Br)cc3)o2)cc1 |  | 0.26 |
| OCCCNc1nc(NCCCO)nc(NCCCO)n1 |  | 5.48 |
| CC(C)[C@H]([NH3+])C(=O)O | 2.32 |  |
| COc1nc2ccccc2[nH]1 |  | 3.75 |
| Cn1cnc2cc(N)ccc21 |  | 6.29 |
| CC1CCCC/C1=N\CC(=O)[O-] (centres undefined) |  | 9.64 |
| CC(=O)n1cnc2ccccc21 |  | 1.8 |
| COc1ccc2c3c([nH]c2c1)C(C)=NCC3 | 15.3 | 9.72 |
| CC(C)(O)C(C(=O)O)c1ccc(-c2ccccc2)cc1 (centres undefined) | 3.76 |  |
| CN(C)c1ccc(O)cc1 | 10.2 |  |
| C[N+](C)(C)/N=C(/O)c1ccccc1 | 4.29 |  |
| CN(C)c1ccc(C2=CN3CCC2CC3)cc1 |  | 9.82 |
| Nc1cccc(I)c1 |  | 3.59 |
| CC1CCCC(C(=O)O)c2nnnn21 (centres undefined) | 3.3 |  |
| [O-]c1cc(O)c2ccccc2[nH+]1 | 5.86 |  |
| CC(C)([Se-])CN |  | 10.9 |
| CCc1cc2c(C)cc(=O)oc2cc1O | 8.01 |  |
| CC(C)CC(=O)CC(=O)C(F)(F)F | 6.52 |  |
| Cc1ccc(S(N)(=O)=O)cc1C | 9.62 |  |
| CC(C)(C)c1ccc(SCC(=O)O)cc1 | 3.76 |  |
| O=C(Cc1ccccc1Nc1c(Cl)cccc1Cl)OCCCN1CCOCC1 |  | 7.99 |
| N[C@H]1CC(=O)NC1=O |  | 9 |

| SMILES | pKa (acidic group) | pKa (basic group) |
| --- | --- | --- |
| COCCNC(=S)S | 2.85 |  |
| CCCCCCN(CC(O)CC)CC(O)CC (centres undefined) |  | 8.6 |
| Cc1cc(Nc2ccc(O)cc2)c(C(C)C)cc1O | 9.85 |  |
| NCC[NH2+]Cc1ccccc1 |  | 6.48 |
| CNc1cc[nH+]c(S)n1 | 3.09 |  |
| CC(C)N/C=[NH+]/c1ccc(-c2cn(C)cn2)cc1 |  | 5.39 |
| O=C1N[C@@H](Cc2c[nH+]c[nH]2)C(=O)N[C@H]1Cc1cnc[nH]1 |  | 5.56 |
| Oc1c(Cc2ccccc2)c(-c2ccccc2)nn1-c1ccccc1 | 7.6 |  |
| O=C(O)[C@@H]1O[C@H](Oc2cccc3[nH+]cccc23)[C@@H](O)[C@H](O)[C@H]1O | 3.1 |  |
| Cc1ccn(-c2ccccn2)n1 |  | 1.36 |
| Cc1cc(Br)c(N)c(Br)c1 |  | 0.69 |
| Cc1nc2cccc([N+](=O)[O-])c2c(NCCC[NH+](C)C)c1C |  | 6.64 |
| CN(C)CCC(c1ccccc1)c1ccccc1 |  | 9.4 |
| CCN(CC)CCNc1cc(C)nc(Nc2ccc(Cl)cc2)n1 |  | 9.05 |
| COc1cccc(-c2nnn[nH]2)c1 | 3.91 |  |
| C/C=C(/C)C(=O)O[C@H]1CC[C@@]2(C)[C@@H]3CC[C@H]4[C@]5(O)C[C@H](O)[C@@]6(O)[C@@H](CN7C[C@@H](C)CC[C@H]7[C@@]6(C)O)[C@]5(O)C[C@@]42O[C@]13O |  | 8.85 |
| CN/C=N/c1cccc(-c2csc(N=C(N)N)n2)c1 |  | 8.29 |
| COc1cccc(NCCS)c1 |  | 5.18 |
| C=C(C)[C@@H]1C[NH2+][C@H](C(=O)[O-])[C@@H]1CC(=O)O | 4.58 |  |
| CC(CC(=O)O)C(N)=O (centres undefined) | 4.59 |  |
| CCCCC#CC(=O)O | 2.61 |  |
| OC[C@H]1CCCN2CCCC[C@@H]12 |  | 10.2 |
| COc1cccc(NS(=O)(=O)c2ccccc2)c1 | 7.95 |  |

| SMILES | pKa (acidic group) | pKa (basic group) |
| --- | --- | --- |
| Nc1ccc2cnc3ccccc3c2c1 |  | 6.88 |
| O=C(O)CCBr | 3.86 |  |
| CN1Cc2[nH]cnc2N(C)C1=O | 11.2 |  |
| CC(=O)N[C@H]1CONC1=O | 5.8 |  |
| CC(C)CC([NH3+])C(=O)O (centres undefined) | 2.46 |  |
| Cc1cc(-c2ccccc2)nn2ccnc12 |  | 4.84 |
| CC(C)(C)c1ccc(C(=O)/C=C/C(=O)O)cc1 | 3.42 |  |
| NC(=O)CCCc1ccccn1 | 5.48 |  |
| O/N=C1\CCCC\C1=N/O | 10.5 |  |
| C=CCc1ccc2cccnc2c1O | 10.1 | 4.52 |
| CC(C)(C)NCCO |  | 10.1 |
| N#Cc1ccccc1-c1nnn[nH]1 | 3.55 |  |
| CC(C)=C(C(N)=O)C(=O)O | 3.95 |  |
| N#CCc1ccc(C(=O)O)cc1 | 4.09 |  |
| O=Nc1ccc(O)cc1 | 6.2 |  |
| Cc1cc(-c2cc(C)n(C)n2)nn1C |  | 2.22 |
| Cn1c(=O)c2[nH]c[nH+]c2n(C)c1=O |  | 0.7 |
| S=C(Nc1ccc(Br)cc1)c1ccccc1 | 10.4 |  |
| Cc1ccc(S(=O)(=O)N2CCNCC2)cc1 |  | 7.41 |
| O=C(O)c1ccnnc1 | 2.8 |  |
| CC(O)=C(C#N)C#N | 1 |  |
| CCCCCCCCC(=O)OO | 8.23 |  |
| CCN(CC)CCC(C)=O |  | 9.25 |
